{"source": "patent US7553642B2", "about": "“Branched neutral amino acid transporters acting as single molecule” (Human Cell Systems, Inc., priority 2003, dated 2009)", "format_in_all_cases": "cell-based", "key": {"human LAT3 [1]": {"target": "T1, human LAT3 (Homo sapiens, UniProt O75387)", "T1 construct": "An expression plasmid vector pSPORT1 containing cDNA of human LAT3 was cleaved by a restriction enzyme NotI, and cRNA; expressed in transfected cells; host or cells: Xenopus laevis oocytes injected with cRNA", "T1 sequence (O75387 1-559)": "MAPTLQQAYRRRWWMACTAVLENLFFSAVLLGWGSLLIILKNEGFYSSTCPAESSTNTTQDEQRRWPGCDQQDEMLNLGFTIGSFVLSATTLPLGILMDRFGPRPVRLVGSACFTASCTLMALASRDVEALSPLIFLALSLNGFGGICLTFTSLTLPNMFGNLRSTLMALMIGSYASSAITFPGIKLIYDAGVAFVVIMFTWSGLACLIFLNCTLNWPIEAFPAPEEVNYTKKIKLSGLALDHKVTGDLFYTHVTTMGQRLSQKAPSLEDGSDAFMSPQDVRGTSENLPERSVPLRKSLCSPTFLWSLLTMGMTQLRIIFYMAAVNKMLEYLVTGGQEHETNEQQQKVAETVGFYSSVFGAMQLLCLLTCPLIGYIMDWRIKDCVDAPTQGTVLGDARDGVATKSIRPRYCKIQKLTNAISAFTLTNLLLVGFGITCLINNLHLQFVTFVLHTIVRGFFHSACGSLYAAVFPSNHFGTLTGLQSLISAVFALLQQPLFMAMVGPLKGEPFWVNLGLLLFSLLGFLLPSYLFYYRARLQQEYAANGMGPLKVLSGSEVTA", "assay": "Uptake of radiolabeled amino acids by Xenopus oocytes injected with human LAT3 cRNA", "description": "The substrate uptake by the injected oocytes using leucine as a substrate was carried out according to the method described by Kanai et al. (Kanai and Hediger, Nature, Vol. 360, 467-471 (1992)), as follows. The oocytes was cultured for 30 minutes in the Na^+-free uptake solution (100 mM of choline chloride, 2 mM of potassium chloride, 1.8 mM of calcium chloride, 1 mM of magnesium chloride, 5 mM of HEPES, pH 7.4) using ^14C-leucine (100 μM) as a substrate, and uptake rate of the substrate was measured by counting radioactivity in the cell.\nThe oocytes was injected with 25 ng of human LAT3 gene cRNA to be expressed thereby, and cultured for 3 days.\nThe experiment of the leucine uptake was carried out as follows according to the above described method in Example 1 (1). That is, the oocytes injected with the cRNA of the human LAT3 gene or water as a control were cultured for 10 minutes in Na^+-free uptake solution containing ^14C-leucine (100 μM) (refer to Example 1 (1)), and measured uptake of radioactivity into the cells.\nThe leucine uptake was conducted at the leucin concentrations of 1, 3, 10, 30, 60, 100, 200, 400, 1000, 2000 and 3000 μM using the oocytes injected with cRNA of the human LAT3 gene according to the above-described method in Example 3 (1). […] In addition, it was clarified that the leucine transport mediated by LAT3 is composed of high affinity component and low affinity component (FIG. 6, inserted figure).\nAn uptake experiment of various amino acids and amino acid analogs was carried out using the oocytes injected with cRNA of the human LAT3 gene according to the above-described method in Example 3 (1), provided that various radiolabeled amino acids were utilized in place of the ^14C-leucine."}, "human LAT3 [2]": {"target": "T1, human LAT3", "assay": "14C-leucine efflux from preloaded oocytes injected with human LAT3 cRNA", "conditions": "preloaded 100 nl of 400 μM 14C-leucine; absence of extracellular leucine; Na+-free; room temperature", "description": "The oocytes injected with cRNA of the human LAT3 gene was injected with 100 nl of 400 μM ^14C-leucine (2 nCi). After washing the oocytes with the leucine-free and Na^+-free uptake solution which was previously cooled with ice, the oocytes were transferred to the Na^+-free uptake solution with or without leucine (1 mM) at room temperature (18 to 22° C.), then efflux of ^14C-leucine was measured. As a control, 100 nl of 400 μM ^14C-leucine (2 nCi) was injected into the oocytes injected with water instead of cRNA of the human LAT3 gene, and the extracellular efflux of ^14C-leucine was measured by the same procedures as described above."}, "mouse LAT3": {"target": "T2, mouse LAT3 (Mus musculus, UniProt Q8BSM7)", "T2 construct": "expressed in transfected cells; host or cells: Xenopus laevis oocytes injected with cRNA (IMAGE clone 4910149)", "assay": "Leucine uptake by oocytes injected with mouse LAT3 cRNA", "conditions": "14C-L-leucine, method of Example 3 (1)", "description": "The cDNA of mouse LAT3 obtained by Example 2 was cleaved at NotI site, and cRNA was prepared using SP6 RNA polymerase. The cRNA of the mouse LAT3 gene was expressed in the oocytes and the ^14C-L-leucine uptake was measured.\nThe oocytes was injected with 25 ng of cRNA of the mouse LAT3 gene to be expressed thereby, and cultured for 3 days. An experiment of the leucine uptake by the oocytes injected with cRNA of the mouse LAT3 gene was carried out according to the method in Example 3 (1)."}, "mouse LAT4": {"target": "T3, mouse LAT4 (Mus musculus, UniProt Q8CGA3, K402E/P237S)", "T3 construct": "An expression plasmid vector pcDNA 3.1(+) containing cDNA of mouse LAT4 was cleaved by a restriction enzyme XbaI; expressed in transfected cells; host or cells: Xenopus laevis oocytes injected with cRNA (from pcDNA3.1(+), IMAGE clone 2235970)", "T3 sequence (Q8CGA3 whole entry P237S/K402E)": "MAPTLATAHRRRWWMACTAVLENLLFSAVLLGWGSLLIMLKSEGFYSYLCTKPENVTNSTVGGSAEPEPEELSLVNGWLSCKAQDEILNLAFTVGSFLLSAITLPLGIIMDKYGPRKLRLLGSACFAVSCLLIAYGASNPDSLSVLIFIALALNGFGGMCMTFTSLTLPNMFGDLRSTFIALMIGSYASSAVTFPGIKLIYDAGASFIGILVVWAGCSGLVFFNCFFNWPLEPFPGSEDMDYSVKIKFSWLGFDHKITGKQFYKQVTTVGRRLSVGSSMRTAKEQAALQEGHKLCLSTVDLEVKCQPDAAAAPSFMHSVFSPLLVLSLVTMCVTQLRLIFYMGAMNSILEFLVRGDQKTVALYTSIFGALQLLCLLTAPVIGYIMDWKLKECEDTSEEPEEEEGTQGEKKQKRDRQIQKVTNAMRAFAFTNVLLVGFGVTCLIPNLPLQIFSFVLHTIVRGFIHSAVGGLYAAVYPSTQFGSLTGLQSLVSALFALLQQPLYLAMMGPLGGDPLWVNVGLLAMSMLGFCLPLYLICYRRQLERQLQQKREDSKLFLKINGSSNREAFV", "assay": "Uptake of radiolabeled amino acids by Xenopus oocytes injected with mouse LAT4 cRNA", "description": "The oocytes was injected with 25 ng of cRNA of the mouse LAT4 gene to be expressed thereby, and cultured for 3 days.\nAn experiment of leucine uptake was carried out as follows according to the above-described method in Example 3 (1). That is, the oocytes injected with cRNA of the mouse LAT4 gene or water as a control were cultured for 10 minutes in the Na^+-free uptake solution containing […] (100 μM) (refer to Example 3 (1)), and measured the uptake of radioactivity into the cells.\nThe leucine uptake was conducted at the leucin concentrations of 0.01, 0.03, 0.1, 0.3, 1, 3 and 10 mM, using the oocytes injected with cRNA of the mouse LAT4 gene according to the above-described method in Example 3 (1). […] In addition, it was clarified that the leucine transport mediated by LAT4 is composed of a high affinity component and a low affinity component, just like the leucin uptake mediated by LAT3.\nAn uptake experiment of various amino acids and amino acid analogs was carried out using the oocytes injected with cRNA of the mouse LAT4 gene according to the above-described method in Example 3 (1). In this regard, in place of ^14C-leucine, various radiolabeled amino acids were utilized."}, "human LAT4": {"target": "T4, human LAT4 (Homo sapiens, UniProt Q8N370)", "T4 construct": "expressed in transfected cells; host or cells: Xenopus laevis oocytes injected with cRNA (IMAGE clone 2783525)", "T4 sequence (Q8N370 1-573 isoform Q8N370-3)": "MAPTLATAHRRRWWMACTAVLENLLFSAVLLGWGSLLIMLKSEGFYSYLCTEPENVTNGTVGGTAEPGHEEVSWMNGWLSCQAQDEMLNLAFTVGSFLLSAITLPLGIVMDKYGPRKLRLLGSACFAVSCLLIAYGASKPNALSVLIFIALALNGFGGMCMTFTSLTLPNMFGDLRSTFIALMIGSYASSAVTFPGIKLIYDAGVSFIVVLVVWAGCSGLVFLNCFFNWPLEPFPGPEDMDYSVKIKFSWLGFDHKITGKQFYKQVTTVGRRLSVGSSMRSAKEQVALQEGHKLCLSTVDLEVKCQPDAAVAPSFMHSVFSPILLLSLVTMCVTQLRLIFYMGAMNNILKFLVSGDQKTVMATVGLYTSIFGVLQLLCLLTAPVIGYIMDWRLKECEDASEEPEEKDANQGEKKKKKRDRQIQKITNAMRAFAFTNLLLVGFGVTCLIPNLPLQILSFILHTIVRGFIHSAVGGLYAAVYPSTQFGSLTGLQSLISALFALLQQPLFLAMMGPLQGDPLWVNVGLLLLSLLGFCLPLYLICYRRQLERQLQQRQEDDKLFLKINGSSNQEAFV", "assay": "Leucine uptake by oocytes injected with human LAT4 cRNA", "conditions": "14C-L-leucine, method of Example 3 (1)", "description": "The cDNA of human LAT4 gene obtained by Example 4 was cleaved at XhoI site, and the cRNA was prepared using T3 RNA polymerase. The cRNA of the human LAT4 gene was expressed in the oocytes and the ^14C-L-leucine uptake was measured.\nThe oocytes was injected with 25 ng of cRNA of the human LAT4 gene, and cultured for […]. Experiment of the leucine uptake by the oocytes injected with cRNA of the human LAT4 gene was carried out according to the method of Example 3 (1)."}, "[3]": {"conditions": "14C-leucine 100 μM, Na+-free uptake solution, 10 minutes"}}}
{"smiles": "CC(C)C[C@H](N)C(=O)O", "note": "[L-leucine]", "values": [{"measurement": "uptake of radiolabeled substrate into oocytes expressing human LAT3", "setting": "human LAT3 [1]; 14C-labeled substrate in place of 14C-leucine, Na+-free uptake solution, 10 minutes", "value": "a large amount of uptake"}, {"measurement": "leucine uptake in oocytes expressing LAT3 compared with water-injected", "setting": "human LAT3 [1]; [3]", "value": "significant augmentation"}, {"measurement": "concentration dependence of leucine uptake (human LAT3)", "setting": "human LAT3 [1]; leucine 1 to 3000 μM", "value": "concentration-dependent and saturable"}, {"measurement": "efflux of 14C-leucine from oocytes expressing human LAT3", "setting": "human LAT3 [2]", "value": "significant efflux"}, {"measurement": "leucine uptake in oocytes expressing mouse LAT3 compared with water-injected", "setting": "mouse LAT3", "value": "significant augmentation"}, {"measurement": "uptake of radiolabeled substrate into oocytes expressing mouse LAT4", "setting": "mouse LAT4; 14C-labeled substrate in place of 14C-leucine", "value": "a large amount of uptake"}, {"measurement": "leucine uptake in oocytes expressing mouse LAT4 compared with water-injected", "setting": "mouse LAT4; [3]", "value": "significant augmentation"}, {"measurement": "concentration dependence of leucine uptake (mouse LAT4)", "setting": "mouse LAT4; leucine 0.01 to 10 mM", "value": "concentration-dependent and saturable"}, {"measurement": "leucine uptake in oocytes expressing human LAT4 compared with water-injected", "setting": "human LAT4", "value": "significant augmentation"}]}
